How the values were obtained:
Assay type in all cases: biochemical
[1] = target: T1, PRL-2 (Homo sapiens, UniProt Q12974); assay: DiFMUP phosphatase activity assay for PRLs; settings: 50 nM PRL-2, 30 min preincubation, 25°C, 24 μM DiFMUP; mean ± SEM (n = 3–5); read-out: IC50 (Ki) PRL-2
T1 construct: His-TEV (cleaved yes); made in house
T1 sequence (Q12974 1-167): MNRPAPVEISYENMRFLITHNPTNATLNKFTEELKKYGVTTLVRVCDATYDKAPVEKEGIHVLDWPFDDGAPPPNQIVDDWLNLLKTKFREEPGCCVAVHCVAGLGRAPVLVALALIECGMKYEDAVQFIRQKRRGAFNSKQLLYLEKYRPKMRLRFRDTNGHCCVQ
Experimental: (§1) Fig 2 Effect of polyphenolic compounds 8 (A), 9 (B), 10 (C) and 11 (D) on the phosphatase activity of PRL-1, PRL-2, PRL-3, PP1, and PP2A. Proteins were incubated for 30 min with 0–1000 μM of the corresponding procyandin 8–11. Phosphatase activity was measured in the presence of DiFMUP at 25°C using the concentration corresponding to the KM of each protein. The KM for PRLs was determined separately (PRL-3 = 21 μM, PRL-2 and PRL-1 = 24 μM). The KM for PP1 (91 μM) and for PP2A (100 μM) was taken from the literature. Protein concentrations are 50 nM for all PRLs and 2 mU for PP1 and 0.05 U for PP2A (see the Experimental Procedures). Phosphatase activity in the absence of inhibitors was set as 100%. Data represent means ± standard errors of the mean (n = 3–5).
(§2) DiFMUP assay for PRLs: In a final reaction volume of 100 μL the PRLs (50 nM final concentration) were incubated with decreasing concentrations of the inhibitory polyphenols for 30 minutes at 25°C. The buffer conditions were 108 mM TrisCl (pH 7.5), Triton 0.05% (v/v), DTT 27.0 mM, NaCl 811 mM. After the incubation time 20 μL DiFMUP (6,8-Difluoro-4-methylumbelliferyl phosphate) was added to reach a final concentration of 21 μM for PRL-3 and 24 μM for PRL-1 and PRL-2. On a Tecan safire2 (Tecan, Salzburg, Austria) plate reader dephosphorylation of the substrate to its fluorescent product was monitored by following the emission at 358 nm with excitation at 452 nm for 20 minutes. All measurements were done in triplicates, and the experiments were repeated at least three times. The slopes of the initial phases were obtained by linear regression of the data points. The normalized reaction rates were plotted versus the log of the inhibitor concentrations and the IC50 values were obtained by fitting the curves using the one site competition model of GraphPad Prism (GraphPad Software, Version 5). KM values were determined by measuring reaction kinetics of substrate dilution series. Initial velocities were plotted against DiFMUP concentration and the data was analyzed by Michaelis-Menten kinetics curve fitting of GraphPad Prism. A final DMSO content of 0.4% was maintained for the monomeric catechins. Due to the high water solubility of the procyanidins DMSO was not required and measurements were done in assay buffer only.

[2] = target: T2, PRL-1 (Homo sapiens, UniProt Q93096); assay: DiFMUP phosphatase activity assay for PRLs; settings: for IC50: 50 nM PRL-1, 30 min preincubation, 25°C, 24 μM DiFMUP, mean ± SEM (n = 3–5), read-out: IC50 (Ki) PRL-1
T2 construct: His-TEV (cleaved yes); made in house
T2 sequence (Q93096 1-173): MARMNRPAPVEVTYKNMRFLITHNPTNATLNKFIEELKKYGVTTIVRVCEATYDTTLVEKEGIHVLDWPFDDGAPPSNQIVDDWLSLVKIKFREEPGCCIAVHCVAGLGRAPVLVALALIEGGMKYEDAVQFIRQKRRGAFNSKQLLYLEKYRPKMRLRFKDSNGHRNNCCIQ
Experimental: as §1, §2

[3] = target: T3, PP2A (Homo sapiens, UniProt P67775); assay: DiFMUP assay for PP2A; settings: 0.05 U PP2A, 30 min preincubation, 25°C, no BSA, mean ± SEM (n = 3–5), read-out: IC50 (Ki) PP2A
T3 construct: purified from human red blood cells; purchased Merck Millipore; host or cells: human red blood cells
Experimental: as §1
BSA, which is usually supplemented to the assay buffer for stabilizing the PPs was however excluded, as BSA is known to form complexes with polyphenolic compounds [40–42] and thus would decrease the concentrations of the inhibitor in the assay. […] In contrast, the phosphatase activity of PP2A was suppressed to a much lesser extent with weak (for trimer 9 and hexamer 11) and strong statistical significance (dimer 8 and tetramer 10). Thus our results corroborate the data reported previously.
Chemicals and vendors were as follows: Synthesis of Procyanidins (dimer to dodecamer) was done as previously reported. EGCG, EGC, ECG and EC were synthesized as previously reported or purchased from Sigma. (+)-Catechin and 3-(4,5-dimethylthiazol-2-yl)-2,5-diphenyltetrazolium bromide (MTT) were obtained from Sigma. 6,8-Difluoro-4-Methylumbelliferyl Phosphate (DiFMUP), propidium iodide and calcein AM were from lifescience technologies. Cell dissociation solution (10X) was purchased from amsbio. PP1c (recombinant from E. coli) was purchased from NewEngland Biolabs and PP2A (purified from human red blood cells, contains different subunits according to manufacturer) from Merck Millipore. Transwell plates (BRANDplates) and insert stripes for the migration assay were purchased from Brand GmbH. Black 96 well plates (96F Nunclon Delta) were purchased from Thermo Scientific. Transparent 96 well assay plates with UV transparent bottom were purchased from Corning Inc. Wound healing experiments were carried out with μ-dish 35 mm culture inserts, which were purchased from Ibidi.
DiFMUP assay for PP2A: In a final reaction volume of 100 μL PP2A (0.05 U final concentration, according to manufacturer’s instructions) were incubated with decreasing concentrations of the inhibitory polyphenols for 30 minutes at 25°C. The assay buffer contained 50 mM TrisCl (pH 7.5), 250 mM NaCl, 0.1 mM EDTA, 1 mM MnCl2, and 2 mM dithiothreitol (DTT). […] Monitoring of the fluorescent dephosphorylation product was monitored and data analyzed as described above.

[4] = target: T4, PRL-3 (Homo sapiens, UniProt O75365); assay: DiFMUP phosphatase activity assay for PRLs; settings: 50 nM PRL-3, 30 min preincubation, 25°C, 21 μM DiFMUP; mean ± SEM (n = 3–5); read-out: IC50 (Ki) PRL-3
T4 construct: His-TEV (cleaved yes); made in house
Experimental: Biochemical phosphatase activity measurements were carried out in the presence of different concentrations of various polyphenols, compounds 1–11 (Fig 1), using recombinant PRL-3 and 6,8-difluoro-4-methylumbelliferyl phosphate (DiFMUP) as a fluorogenic substrate (see the experimental procedures). We observed that the monomeric epicatechins EGC and EC inhibit PRL-3 only weakly, with a slightly better activity of EGC, which bears three hydroxyl groups at the B-ring. […] In general, as a basic structure activity-relationship the following trend was observed: a higher number of hydroxyl groups at the B-ring increased the activity slightly. […] The influence of the stereochemistry at C(2)–C(3) was studied by using GCG (the trans-epimer of EGCG).
as §1, §2

T4 sequence (O75365 whole entry): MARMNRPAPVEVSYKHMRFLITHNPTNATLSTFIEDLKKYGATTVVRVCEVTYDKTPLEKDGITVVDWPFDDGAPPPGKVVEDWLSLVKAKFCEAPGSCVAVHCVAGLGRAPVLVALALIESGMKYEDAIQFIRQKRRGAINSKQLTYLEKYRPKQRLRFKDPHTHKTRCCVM
T3 sequence (P67775 whole entry): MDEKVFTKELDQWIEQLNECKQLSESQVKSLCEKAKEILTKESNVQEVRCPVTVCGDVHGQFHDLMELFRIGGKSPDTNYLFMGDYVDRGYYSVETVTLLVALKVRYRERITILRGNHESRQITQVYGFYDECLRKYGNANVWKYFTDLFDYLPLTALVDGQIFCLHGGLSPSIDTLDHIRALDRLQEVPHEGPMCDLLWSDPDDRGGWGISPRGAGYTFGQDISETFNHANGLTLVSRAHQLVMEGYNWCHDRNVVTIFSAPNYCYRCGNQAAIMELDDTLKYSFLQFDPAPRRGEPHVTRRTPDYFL
T3 sequence (P30153 2-589 partner limits assumed): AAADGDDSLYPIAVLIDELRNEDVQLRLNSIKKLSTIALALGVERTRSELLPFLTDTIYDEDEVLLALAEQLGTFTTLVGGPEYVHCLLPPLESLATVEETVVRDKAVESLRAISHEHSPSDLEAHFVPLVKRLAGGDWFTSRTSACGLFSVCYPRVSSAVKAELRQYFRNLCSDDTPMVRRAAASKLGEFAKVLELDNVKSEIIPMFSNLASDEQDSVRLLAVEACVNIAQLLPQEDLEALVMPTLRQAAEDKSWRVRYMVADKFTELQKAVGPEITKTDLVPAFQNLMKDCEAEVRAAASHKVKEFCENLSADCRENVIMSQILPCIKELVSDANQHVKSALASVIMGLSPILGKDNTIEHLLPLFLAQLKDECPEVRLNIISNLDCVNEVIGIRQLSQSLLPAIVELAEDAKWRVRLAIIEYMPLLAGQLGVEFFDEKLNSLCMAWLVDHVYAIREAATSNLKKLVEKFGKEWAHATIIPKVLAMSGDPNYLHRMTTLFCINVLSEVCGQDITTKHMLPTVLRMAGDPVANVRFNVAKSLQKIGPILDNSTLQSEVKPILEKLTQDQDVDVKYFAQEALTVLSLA

Row | SMILES | IC50 [1] [µM] | IC50 [2] [µM] | fold higher activity toward PRL-1 compared to PRL-3 ([2]; in vitro, from IC50 values) [fold] | IC50 [3] [µM] | IC50 [4] [µM]
1 | Oc1cc(O)c2c(c1)O[C@H](c1ccc(O)c(O)c1)[C@@H](O)[C@@H]2c1c(O)cc(O)c2c1O[C@H](c1ccc(O)c(O)c1)[C@@H](O)C2 [Procyanidin B3 (8), Procyanidin B3] | 103 ± 1.1 | 3.3 ± 1.2 | 38 | > 1000 | 127 ± 1.5
2 | Oc1cc(O)c2c(c1)O[C@H](c1ccc(O)c(O)c1)[C@@H](O)[C@@H]2c1c(O)cc(O)c2c1O[C@H](c1ccc(O)c(O)c1)[C@@H](O)[C@@H]2c1c(O)cc(O)c2c1O[C@H](c1ccc(O)c(O)c1)[C@@H](O)C2 [Procyanidin C2 (9), Procyanidin C2] | 15.2 ± 1.4 | 1.8 ± 1.1 | – | 213 ± 72 | 18.8 ± 4.5

— article PMC4520450, “Procyanidins Negatively Affect the Activity of the Phosphatases of Regenerating Liver” (PLoS ONE, 2015)
